{"source": "paper PMC8776894", "about": "(Communications Biology, 2022)", "key": {"HT22 cells (OGD/R) [1]": {"test_system": "HT22 cells (OGD/R)", "test": "Seahorse O2 consumption rate (OCR)", "type": "cell-based, mouse", "conditions": "dose-dependent", "procedure": "HT22 cells were counted and plated at 8000 cells per well in a Seahorse XF96 Cell Culture Microplate for all experiments (Agilent). They were then treated with VK (0.0735 or 0.735 μM) for 24 h. […] Next, HT22 cells were washed after 24 h of incubation and were incubated in a 0% CO2 chamber at 37 °C for 1 h, before being placed into a Seahorse XFe96 Analyzer (Agilent). In OCR experiment, HT22 cells were treated, with 2 μM of oligomycin, 5 μM of FCCP, and 1 μM of rotenone and antimycin, respectively; to assess ECAR, they were treated with 1 μM of rotenone and antimycin and 50 mM of 2-DG. All OCR and ECAR data were normalized to cell number per well using WAVE (Agilent)."}, "[2]": {"test_system": "pyramidal neurons of mouse neocortex", "type": "in vivo", "conditions": "for Fig.6g mEPSC amplitude per recorded neuron: individual values"}, "[3]": {"test_system": "HT22 hippocampal neuron cells (OGD/R)", "test": "HT22 cell viability after OGD/R (CCK8)"}, "HT22 cells (OGD/R) [4]": {"test_system": "HT22 cells (OGD/R)", "test": "Annexin V-FITC/propidium iodide apoptosis", "type": "cell-based, mouse", "conditions": "Annexin V-FITC/PI flow cytometry"}, "mice": {"test_system": "mice", "test": "Acute toxicity test (single i.p. dose)", "type": "in vivo, mouse", "procedure": "To ensure that the safety of VK in vivo, acute toxicity test was performed. […] Clinical symptoms (temperature, change in skin, eye color change, general physique, body weight, diarrhea, sedation, and organ index) were recorded (Supplementary Table 3). […] Karyopyknosisa and the cellular swelling of the hepatocyte were moderate in the liver of mice treated with VK (96 and 384 mg/kg). […]\nAcute toxicity test. Systemic acute toxicity test by peritoneal injection was performed according to the guideline provided by Center for Drug Evaluation and Research. In addition to the normal group, male mice were randomly divided into the treated groups received a single dose of 1.5 mg/kg, 6 mg/kg, 24 mg/kg, 96 mg/kg and 384 body weight of VK. Clinical signs of toxicity such as mortality, skin, eyes, fur, respiratory pattern , changes in general behavior and activity were individually observed. […]\nday, the mice were anesthetized with 1.5% isoflurane in a mixture of 30% O2 and 69% N2O. Blood was collected from muse eyeballs and mixed with 3.2% sodium citrate at a v/v ratio of 1:9. Then, the blood was centrifuged at 3,000 rpm for 10 min.\nThe obtained plasma was analyzed using an automatic coagulation apparatus (CA1500)."}, "BV2 microglia cells": {"test_system": "BV2 microglia cells", "test": "CCK-8 cytotoxicity in BV2 cells", "conditions": "CCK8 assay"}, "[5]": {"test_system": "IL-1β, TNF-α, IL-6, IL-8, IL-10 in serum", "test": "Cytokine ELISA in serum", "type": "in vivo, mouse", "conditions": "MCAO/R mice, 48 h", "procedure": "Mice were decapitated under anesthesia at 48 h after MCAO/R. The IL-1β (Cat# 88-5019-88), TNF-α (Cat# 88-7324-22), IL-6 (Cat# 88-7064-88), and IL-8 (Cat# 88-8086-22) were purchased from Thermo Fisher Scientific. The levels of these proteins were measured by enzyme-linked immune sorbent assays (ELISA) kits, according to the manufacturer’s recommendations."}, "[6]": {"test_system": "neurons in brain of MCAO/R mice", "test": "NeuN immunohistochemistry", "type": "in vivo, mouse"}, "[7]": {"conditions": "VK 1.5 mg/kg single i.p., n=5, 14 d observation"}, "[8]": {"conditions": "VK 6 mg/kg single i.p., n=6, 14 d observation"}, "[9]": {"conditions": "VK 24 mg/kg single i.p., n=6, 14 d observation"}, "[10]": {"conditions": "VK 96 mg/kg single i.p., n=6, 14 d observation"}, "[11]": {"conditions": "VK 384 mg/kg single i.p., n=6, 14 d observation"}}, "note": "Values joined by “and” are separate entries in the source; they are usually repeats but may differ in a detail not shown here. Identical values can stand only once. Like-named read-outs stand apart in the source and are kept apart here.", "data": [{"substance": "Gly-Arg-Pro-Hyp-Gly-Phe-Ser-Pro-Phe-Arg-Ile-Asp [VK, Vespakinin-M]", "values": [{"measurement": "mitochondrial oxygen consumption rate in neurons", "setting": "HT22 cells (OGD/R) [1]", "result": "accelerated the mitochondrial oxygen consumption rate"}, {"measurement": "action potential threshold of pyramidal neurons vs vehicle", "setting": "[2]; 48 h after MCAO", "result": "higher action potential threshold"}, {"measurement": "Fig.6g mEPSC amplitude per recorded neuron", "setting": "[2]; VK150, n = 14", "result": "19.084 pA and 16.328 pA and 11.543 pA and 20.277 pA and 16.752 pA and 17.611 pA and 14.33 pA and 14.518 pA and 18.178 pA and 20.574 pA and 16.408 pA and 17.172 pA and 18.064 pA and 16.721 pA"}, {"measurement": "Fig.6g mEPSC amplitude per recorded neuron", "setting": "[2]; VK300, n = 18", "result": "16.409 pA and 16 pA and 15.374 pA and 15.042 pA and 15.977 pA and 15.473 pA and 16.722 pA and 19.242 pA and 17.388 pA and 16.685 pA and 16.328 pA and 14.712 pA and 16.978 pA and 16.137 pA and 19.209 pA and 18.238 pA and 16.732 pA and 16.833 pA"}, {"measurement": "amplitude of mEPSCs", "setting": "[2]; after stroke in mice", "result": "no obvious effects on the amplitude of mEPSCs"}, {"measurement": "cell activity of HT22 cells after OGD/R", "setting": "[3]", "result": "enhanced cell activity"}, {"measurement": "apoptosis of HT22 cells after OGD/R", "setting": "HT22 cells (OGD/R) [4]", "result": "restrained apoptosis"}, {"measurement": "Body weight", "setting": "mice; [7]", "result": "Normal"}, {"measurement": "Breathing difficulty", "setting": "mice; [7]", "result": "Normal"}, {"measurement": "Change In skin", "setting": "mice; [7]", "result": "No effect"}, {"measurement": "Coma", "setting": "mice; [7]", "result": "Normal"}, {"measurement": "Death", "setting": "mice; [7]", "result": "Alive"}, {"measurement": "Diarrhea", "setting": "mice; [7]", "result": "Normal"}, {"measurement": "Drowsiness", "setting": "mice; [7]", "result": "Normal"}, {"measurement": "Eye color change", "setting": "mice; [7]", "result": "No effect"}, {"measurement": "Organ index", "setting": "mice; [7]", "result": "Normal"}, {"measurement": "Sedation", "setting": "mice; [7]", "result": "Normal"}, {"measurement": "Temperature", "setting": "mice; [7]", "result": "Normal"}, {"measurement": "Tremor", "setting": "mice; [7]", "result": "Normal"}, {"measurement": "Body weight", "setting": "mice; [8]", "result": "Normal"}, {"measurement": "Breathing difficulty", "setting": "mice; [8]", "result": "Normal"}, {"measurement": "Change In skin", "setting": "mice; [8]", "result": "No effect"}, {"measurement": "Coma", "setting": "mice; [8]", "result": "Normal"}, {"measurement": "Death", "setting": "mice; [8]", "result": "Alive"}, {"measurement": "Diarrhea", "setting": "mice; [8]", "result": "Normal"}, {"measurement": "Drowsiness", "setting": "mice; [8]", "result": "Normal"}, {"measurement": "Eye color change", "setting": "mice; [8]", "result": "No effect"}, {"measurement": "Organ index", "setting": "mice; [8]", "result": "Normal"}, {"measurement": "Sedation", "setting": "mice; [8]", "result": "Normal"}, {"measurement": "Temperature", "setting": "mice; [8]", "result": "Normal"}, {"measurement": "Tremor", "setting": "mice; [8]", "result": "Normal"}, {"measurement": "Body weight", "setting": "mice; [9]", "result": "Decline"}, {"measurement": "Breathing difficulty", "setting": "mice; [9]", "result": "Normal"}, {"measurement": "Change In skin", "setting": "mice; [9]", "result": "No effect"}, {"measurement": "Coma", "setting": "mice; [9]", "result": "Normal"}, {"measurement": "Death", "setting": "mice; [9]", "result": "Alive"}, {"measurement": "Diarrhea", "setting": "mice; [9]", "result": "Normal"}, {"measurement": "Drowsiness", "setting": "mice; [9]", "result": "Normal"}, {"measurement": "Eye color change", "setting": "mice; [9]", "result": "No effect"}, {"measurement": "Organ index", "setting": "mice; [9]", "result": "Normal"}, {"measurement": "Sedation", "setting": "mice; [9]", "result": "Normal"}, {"measurement": "Temperature", "setting": "mice; [9]", "result": "Normal"}, {"measurement": "Tremor", "setting": "mice; [9]", "result": "Normal"}, {"measurement": "Body weight", "setting": "mice; [10]", "result": "Decline"}, {"measurement": "Breathing difficulty", "setting": "mice; [10]", "result": "Normal"}, {"measurement": "Change In skin", "setting": "mice; [10]", "result": "No effect"}, {"measurement": "Coma", "setting": "mice; [10]", "result": "Normal"}, {"measurement": "Death", "setting": "mice; [10]", "result": "Alive"}, {"measurement": "Diarrhea", "setting": "mice; [10]", "result": "Normal"}, {"measurement": "Drowsiness", "setting": "mice; [10]", "result": "Normal"}, {"measurement": "Eye color change", "setting": "mice; [10]", "result": "No effect"}, {"measurement": "Organ index", "setting": "mice; [10]", "result": "Normal"}, {"measurement": "Sedation", "setting": "mice; [10]", "result": "Normal"}, {"measurement": "Temperature", "setting": "mice; [10]", "result": "Normal"}, {"measurement": "Tremor", "setting": "mice; [10]", "result": "Normal"}, {"measurement": "liver index", "setting": "mice; VK 384 mg/kg single i.p.", "result": "increased liver index"}, {"measurement": "Body weight", "setting": "mice; [11]", "result": "Decline"}, {"measurement": "Breathing difficulty", "setting": "mice; [11]", "result": "Normal"}, {"measurement": "Change In skin", "setting": "mice; [11]", "result": "No effect"}, {"measurement": "Coma", "setting": "mice; [11]", "result": "Normal"}, {"measurement": "Death", "setting": "mice; [11]", "result": "Alive"}, {"measurement": "Diarrhea", "setting": "mice; [11]", "result": "Normal"}, {"measurement": "Drowsiness", "setting": "mice; [11]", "result": "Normal"}, {"measurement": "Eye color change", "setting": "mice; [11]", "result": "No effect"}, {"measurement": "Organ index", "setting": "mice; [11]", "result": "Increased"}, {"measurement": "Sedation", "setting": "mice; [11]", "result": "Normal"}, {"measurement": "Temperature", "setting": "mice; [11]", "result": "Normal"}, {"measurement": "Tremor", "setting": "mice; [11]", "result": "Normal"}, {"measurement": "Body weight", "setting": "mice; VK 24, 96 and 384 mg/kg single i.p.", "result": "continued to lose weight until day 5"}, {"measurement": "index of brain, myocardium and kidney", "setting": "mice; all treatment dose groups (1.5-384 mg/kg single i.p.)", "result": "no difference"}, {"measurement": "safe multiple of the effective dose (150 μg/kg)", "setting": "mice; mice", "result": 640, "unit": "times"}, {"measurement": "safe doses of VK in acute toxicity tests", "setting": "mice; mice, single i.p. dose", "result": "< 96", "unit": "mg/kg"}, {"measurement": "mortality", "setting": "mice; single i.p. dose 1.5, 6, 24, 96 and 384 mg/kg, observed for 24 h", "result": "no mortality was observed"}, {"measurement": "concentrations at which VK inhibited growth of BV2 cells", "setting": "BV2 microglia cells", "result": "73.5 to 735", "unit": "µM"}, {"measurement": "IL-10 level in serum vs vehicle", "setting": "[5]", "result": "increase in IL-10 levels"}, {"measurement": "IL-1β, TNF-α, IL-6 and IL-8 levels in the peripheral (serum) vs vehicle", "setting": "[5]; VK 150 and 300 µg/kg", "result": "decreased IL-1β, TNF-α, IL-6, and IL-8 levels"}, {"measurement": "number of NeuN-positive cells", "setting": "[6]", "result": "greater than that in the vehicle-treated group"}]}]}
